According to patent US20210177952A1, “METHOD AND COMPOSITION FOR STIMULATING IMMUNE RESPONSE” (BeyondSpring Pharmaceuticals, Inc., priority 2018, published 2021):

What was measured:
[1] = assay type: in vivo, Mouse, C57BL6; details: 15 mg/kg IP BID, subgroup I group 3, three animals
Procedure: Detailed Clinical Observations: Scheduled detailed clinical observations were not conducted on this study. Unscheduled clinical observations were made on mice flagged by trained personnel during daily moribundity/morbidity checks for any reason.
The remaining subgroups II-V, group 3 animals were dosed at 10 mg/kg (indicated as “*” in Tables 3-4 above). The experimental observations described below in this Example were focused on the lower dose (10-mg/kg) mice.

[2] = tested on: CD4^+ T cells combined with CD14^+ dendritic cells; assay: Allogeneic mixed lymphocyte reaction (MLR), IL-2 and IFN-γ by ELISA; assay type: cell-based, Human
Procedure: Human peripheral CD14 positive monocytes were collected from a human donor and, subsequently, differentiated and matured into CD14^+ dendritic cells (DCs). Human CD4 positive T-cells were separately collected from another human donor. The collected CD4^+ T cells were combined with the CD14^+ DCs in a mixed lymphocyte reaction (MLR). In this Example, a tubulin binding agent was added, respectively, in the step of monocyte differentiation, in the step of dendritic cell maturation, and in the step of T-cell activation by combining the CD14^+ DCs with the CD4^+ T cells.
ISOLATION OF HUMAN CD4^+ T CELLS FROM ANOTHER DONOR'S PBMCs: PBMC cells were obtained from another human donor according to (1a)-(1d) above. CD4^+ T-cells were then isolated from these PBMCs according to steps (3a)-(3k) as follows: (3a) The number of the PBMC cells was determined. (3b) The cell suspension was centrifuged at 300×g for 10 min. The supernatant was then completely aspirated. (3c) The cell pellet was re-suspended in 40 μL of FACS buffer per 10^7 total cells. (3d) 10 μL of CD4^+ T Cell Biotin-Antibody Cocktail was added per 10^7 total cells. (3e) The mixture was well mixed and incubated for 5 min in refrigerator (at 2-8° C.). (3f) 30 μL of FACS buffer was added per 10^7 total cells, and 20 μL of CD4^+ T-Cell MicroBead Cocktail was added per 10^7 total cells. (3g) The mixture was well mixed and incubated for 10 min in refrigerator (at 2 to 8° C.). (3h) A column is placed in magnetic field of a suitable MACS Separator. (3i) The column is prepared by rinsing with 3 mL of buffer. (3j) The cell suspension was applied onto the column. The flow-through containing unlabeled cells, representing the enriched CD4^+ T cells, were collected. […]
ALLOGENEIC ACTIVATION OF T CELLS ASSESSED BY MLR ASSAY: Allogeneic Mixed Lymphocyte Reaction (MLR) assays were performed according to steps (4a)-(4d) as follows: (4a) The test article (e.g., plinabulin and other tubulin binding agents) were each diluted in RPMI 1640 medium according to one of Tables 7-9 and, subsequently, added at 50 μL/well in appropriate wells. […]

Question: What does the source list for `CC(C)(C)c1[nH]cnc1/C=c1\[nH]c(=O)/c(=C/c2ccccc2)[nH]c1=O` [Plinabulin, (3Z,6Z)-3-Benzylidene-6-{[5-(2-methyl-2-propanyl)-1H-imidazol-4-yl]methylene}-2,5-piperazinedione]?
Answer: clinical observations within 1 day following test article administration [1]: decreased activity, irregular breathing, dehydration, and body cold to touch; IL2 secretion in MLR ([2]; CD14^+ monocytes treated at 1 or 3 μM during DC differentiation): decrease in IL2 secretion; IL2 secretion in MLR ([2]; DCs treated at 1 or 3 μM during DC maturation): increase in IL2 secretion; MLR induced IL-2 secretion ([2]; treatment at ≥100 nM began when mature DCs were combined with CD4 T-cells, compared with nivolumab at 2 mg/ml): significant increase in MLR induced IL-2 secretion, greater than that of nivolumab
